Data from patent US5866588A, “Imidazopyridine derivatives” (British Biotech Pharmaceuticals Ltd., priority 1995, dated 1999).
pIC50: −log10 of the molar value.

How the values were obtained:
[1] = test system: Histamine Induced Bronchoconstriction; assay: Histamine Induced Bronchoconstriction in the Anaesthetised Guinea Pig; type: in vivo, guinea pig (Dunkin-Hartley); settings: p.o.; for ED50: Cavia porcellus, po, 1 h, histamine infusion 10 μgkg^-1 min^-1 one hour after dosing
Text: Histamine Induced Bronchoconstriction in the Anaesthetised Guinea Pig
(§1) Following oral administration of test compound or vehicle by oral gavage, male Dunkin-Hartley guinea pigs (350-400 g) were anaesthetised by intraperitoneal injection of 60 mgkg^-1 sodium pentobarbitone (Sagatal, May & Baker UK). Through a midline incision of the neck, the trachea was cannulated and connected to a small animal respirator (Harvard, UK). Animals were artificially ventilated at a rate of 30 breaths per minute with a tidal volume of 8-10 ml to give a resting tracheal inflation pressure of 15 mmHg as measured by a physiological pressure transducer (type P23XL, Spectramed USA) connected to a side arm of the respiratory circuit.
A jugular vein was cannulated for the administration of propranolol and for the infusion of histamine. A carotid artery was cannulated for the measurement of arterial blood pressure via a physiological pressure transducer (type P23XL, Spectramed USA). Blood pressure and tracheal inflation pressure were recorded on a thermal array chart recorder (type TA4000, Gould Electronics UK).
Following a suitable equilibration period, propranolol (1 mgkg^-1 i.v. & 3 mgkg^-1 s.c. Sigma Chemical Co. UK) was administered to inhibit any resulting catecholamine release following histamine administration.
Histamine infusion (10 μgkg^-1 min^-1 at a rate of 10 mlhr^-1 using a perfusion pump type Perfuser securer FT, B. Braun Germany) was started at the one hour time point following oral administration of the test compound or vehicle. Changes in tracheal inflation pressure and blood pressure of drug treated animals were compared with changes from vehicle treated animals and ED50 values determined. One dose of test compound was investigated per animal.

[2] = test system: PAF Induced Bronoconstriction; assay: PAF Induced Bronoconstriction in the Anaesthetised Guinea Pig; type: in vivo, guinea pig (Dunkin-Hartley); settings: Cavia porcellus, po, 1 h; p.o.; PAF 100 ngkg^-1 i.v. bolus one hour after dosing; read-out: ED50 (PAF induced bronchoconstriction)
Protocol: PAF Induced Bronoconstriction in the Anaesthetised Guinea Pig
as §1, with “or vehicle,” for “or vehicle by oral gavage,”, “(Harvard, UK)” for “(Harvard, UK).”, “tidal” for “tidal volume”
A jugular vein was cannulated for the administration of a bolus dose of propranolol and for the later administration of bolus PAF. A carotid artery was cannulated for the measurement of arterial blood pressure via a physiological pressure transducer (type P23XL, Spectramed USA). Blood pressure and tracheal inflation pressure were recorded on a thermal array chart recorder (type TA4000, Gould Electronics UK).
Propranolol (1 mgkg^-1 i.v. & 3 mgkg^-1 s.c. Sigma Chemical Co. UK) was administered 10 minutes before PAF in order to prevent the bronchodilatory activity of catecholamines which may be released in response to PAF administration. PAF (100 ngkg^-1 i.v. bolus) was administered at the one hour time point following oral administration of the test compound or vehicle.
Changes in tracheal inflation pressure and blood pressure of drug treated animals were compared with changes from vehicle treated animals and percentage inhibition determined. One dose of test compound was investigated per animal.

[3] = target: T1, histamine-1 receptors on Hela-S3 cells (Homo sapiens, UniProt P35367); assay: Inhibition of [^3 H]-Pyrilamine Binding to Histamine-1 Receptors on Hela-S3 Cells; settings: 0.5 h; 1 μM test compound; [^3 H]-pyrilamine remaining specifically bound; 37° C., 30 minutes; read-out: % Specific Binding at 1 μM
T1 construct: histamine-1 receptors on Hela-S3 cells (American Type Culture Collection); host or cells: HeLa-S3 cells (intact cell suspension)
T1 sequence (P35367 whole entry): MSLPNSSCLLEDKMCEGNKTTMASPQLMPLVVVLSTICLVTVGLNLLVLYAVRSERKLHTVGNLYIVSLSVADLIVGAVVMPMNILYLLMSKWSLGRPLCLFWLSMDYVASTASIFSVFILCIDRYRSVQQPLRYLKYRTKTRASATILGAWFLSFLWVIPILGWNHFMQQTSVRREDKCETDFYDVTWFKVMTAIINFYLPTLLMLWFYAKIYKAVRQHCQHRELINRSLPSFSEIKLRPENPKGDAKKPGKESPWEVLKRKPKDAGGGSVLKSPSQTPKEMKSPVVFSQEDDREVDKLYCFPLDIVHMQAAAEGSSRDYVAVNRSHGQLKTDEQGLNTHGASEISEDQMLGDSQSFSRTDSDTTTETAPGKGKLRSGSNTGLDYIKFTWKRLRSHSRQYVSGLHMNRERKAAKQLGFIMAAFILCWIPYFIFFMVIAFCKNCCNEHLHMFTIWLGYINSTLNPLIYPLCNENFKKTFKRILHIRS
Protocol: Inhibition of [^3 H]-Pyrilamine Binding to Histamine-1 Receptors on Hela-S3 Cells
The inhibition of [^3 H]-pyrilamine binding to histamine-1 receptors on Hela-S3 cells (American Type Culture Collection) was determined by isotopic labelling and filtration techniques. A suspension of the cells in buffer (25 ml, 0.5% Bovine Serum Albumin, 0.1% sodium azide, phosphate buffered saline (PBS)) was centrifuged at 1000 rpm for 5 minutes in a JOUAN CR 422 centrifuge, collected, resuspended in buffer (25 ml) and spun again. The cells were counted using a haemocytometer and resuspended in buffer to provide a final concentration of 4.5×10^6 cells ml^-1. A portion of the Hela-S3 cell suspension (1 ml) was added to each assay tube containing 25 μl of vehicle (50% DMSO/buffer) or 25 μl of test compound solution (dissolved in DMSO and diluted with sufficient PBS to give a final test concentration of 1 μM) and 25 μl of [^3 H]-pyrilamine (supplied by Amersham International and diluted with PBS to 3 nM). The tubes were mixed, incubated at 37° C. for 30 minutes and then spun at 4° C. at 2000 rpm for 2 minutes. The supernatant was removed and the cells resuspended in buffer (repeated ×2). The cells were suspended in 300 μl of a 2:1 solution of 1M sodium hydroxide and 1% sodium dodecyl sulphate. The tubes were left ovemight before the contents were tranferred to a scintillation vial, treated with 10 ml, OPTIPHASE MP scintillation fluid (OPTIPHASE MP is a trade mark) and the radioactivity counted in a scintillation counter. Non-displacable binding (NDB) was determined using Astemizole (5×10^-5 M) in place of test compounds. Defining the counts for total binding from the vehicle control sample as "TB" and the counts for total binding with antogonist as "TBA" the percentage specific binding (% SB) can be determined from the following equation.

[4] = test system: PAF-Induced Platelet Aggregation; assay: Inhibition of PAF-Induced Platelet Aggregation; type: cell-based, rabbit (New Zealand White); settings: Oryctolagus cuniculus; rabbit platelet-rich plasma, PAF 100 ngml^-1
Protocol: Inhibition of PAF-Induced Platelet Aggregation
Male New Zealand White rabbits (3.0-3.5 kg) were anaesthetised by intravenous administration of sodium pentobarbitone, 18 mg.ml^-1, via a marginal ear vein. The trachea was exposed and connected to a respiratory pump (Harvard UK) to provide artificial ventilation. A carotid artery was exposed and cannulated and the animal was exsanguinated. Whole blood was collected in a syringe containing tri-sodium citrate (3.8% w/v) to a ratio of 1 part citrate:9 parts blood.
Collected blood was centrifuged at 180×g for 15 minutes at room temperature (21° C.) to prepare platelet-rich plasma (PRP). The remaining blood was then centrifuged at 1800×g for 10 minutes at room temperature to obtain platelet poor plasma (PPP).
Platelet count of the PRP was measured using a Technicon H1 blood cell differential analyser (Bayer Diagnostics UK) and adjusted with PPP to obtain a final platelet count of 500,000 platelets per μl of plasma, this being the normal physiological platelet count for rabbits. Corrected PRP was left to equilibrate at room temperature for 30 minutes before use.
Aggregation studies were carried out using a 4-channel aggregometer (PAP-4C, BioData USA) as follows: 400 μl aliquots of PRP were placed in siliconised cuvettes and incubated to 37° C. for 1 to 2 minutes in the heating block of the aggregometer. Baseline (100% aggregation) was set up using PPP (500 μl in a siliconised cuvette). The PRP was placed into a measuring well of the aggregometer, and a stirrer bar was added. The sample was stirred at 1000 rpm. The machine was activated to set the 0% aggregation level. Test compound or vehicle (50 μl) was added to the PRP, where any effects on the baseline was noted. PAF (100 ngml^-1 as 50 μl aliqout) was added to the PRP 3 minutes after test compound or vehicle. Aggregation was measured for a further 4 minutes after PAF addition and the maximum aggregation over the 4 minutes was recorded.
The investigation of different concentrations of test compound was performed in triplicate. Data were expressed as […] of the sample and test compound data were compared to vehicle data to obtain % inhibition of the PAF-induced aggregation from which IC50 values could be determined.
PAF was made up in sterile saline (NaCl 0.9% w/v) containing BSA (0.25% w/v) from an initial stock solution (10 mgml^-1 in EtOH). Test compounds were made up as 1×10^-3 M stock solutions in sterile saline containing molar equivalents of 1N HCl (v/v) or in DMSO.
In the results which follow, a comparison compound A was included. Compound A was prepared as described in EP-A-260613 (G. D. Searle), but is not part of the present invention. As appears from the results of the comparison, compounds of this invention, all of which incorporate a fragment capable of H1 antagonist activity, are observed to show improved PAF antagonist activity over compound A.

Cc1ccc(/C(=C\CN2CCCC2)c2cccc(/C=C/CN(C)C(=O)c3ccc(Cn4c(C)nc5cnccc54)cc3)n2)cc1 [Example 3, N-Methyl-4-(1H-2-methylimidazo[4,5-c]pyridin-1-ylmethyl)-N-{3-[6-(3-pyrrolidin-1-yl-1-{4-tolyl}-prop-1E-enyl)-pyridin-2-yl]-prop-2E-enyl}-benzamide]
ED50 [1]: 0.4 mg/kg | ED50 [2]: 5.8 mg/kg | activity at 1 µM [3]: 19% | pIC50 [4]: 5.83

Cc1ccc(/C(=C\CN2CCCC2)c2cccc(/C=C/CN(C(=O)c3ccc(Cn4c(C)nc5cnccc54)cc3)C3CCCCC3)n2)cc1 [Example 4, N-Cyclohexyl-4-(1H-2-methylimidazo[4,5-c]pyridin-1-ylmethyl)-N-{3-[6-(3-pyrrolidin-1-yl-1-{4-tolyl}-prop-1E-enyl)-pyridin-2-yl]-prop-2E-enyl}-benzamide]
ED50 [1]: 0.85 mg/kg | ED50 [2]: 1.55 mg/kg | activity at 1 µM [3]: 42% | pIC50 [4]: 6.78

CCN(C/C=C/c1cccc(/C(=C/CN2CCCC2)c2ccc(C)cc2)n1)C(=O)c1ccc(Cn2c(C)nc3cnccc32)cc1 [Example 13, N-Ethyl-4-(1H-2-methylimidazo[4,5-c]pyridin-1-ylmethyl)-N-{3-[6-(3-pyrrolidin-1-yl1-{4-tolyl}-prop-1E-enyl)-pyridin-2-yl]-prop-2E-enyl}-benzamide]
ED50 [1]: 1 mg/kg | ED50 [2]: 2.55 mg/kg | activity at 1 µM [3]: 30% | pIC50 [4]: 6.62

CCCN(C/C=C/c1cccc(/C(=C/CN2CCCC2)c2ccc(C)cc2)n1)C(=O)c1ccc(Cn2c(C)nc3cnccc32)cc1 [Example 16, N-Propyl-4-(1H-2-methylimidazo[4,5-c]pyridin-1-ylmethyl)-N-{3-[6-(3-pyrrolidin-1-yl-1-{4-tolyl}-prop-1E-enyl)-pyridin-2-yl]-prop-2E-enyl}-benzamide]
% inhibition (histamine induced bronchoconstriction) ([1]; 10 mg/kg, histamine infusion one hour after dosing): 46% | ED50 [2]: 1.55 mg/kg | activity at 1 µM [3]: 30% | pIC50 [4]: 6.89

Cc1nc2cnccc2n1Cc1ccc(C(=O)N(C/C=C/c2cccc(/C(=C/CN3CCCC3)c3ccc(Cl)cc3)n2)C2CCCCC2)cc1 [Example 20, N-Cyclohexyl-4-(1H-2-methylimidazo[4,5-c]pyridin-1-ylmethyl)-N-{3-[6-(3-pyrrolidin-1-yl-1-{4-chlorophenyl}-prop-1E-enyl)-pyridin-2-yl]-prop-2E-enyl}-benzamide]
ED50 [1]: 1 mg/kg | ED50 [2]: 4.2 mg/kg
